Measurements as given in PubChem BioAssay (NCI).
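Following 48 hours of exposure in 96-well plates, responses at five concentrations were used to interpolate endpoints linearly. TGI is the concentration that stops growth completely.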

Key:
Test in all cases: NCI tumour cell line growth inhibition, 48 h
786-0 renal = tested on: 786-0 renal
A498 renal = tested on: A498 renal
A549 NSCLC = tested on: A549 NSCLC
ACHN renal = tested on: ACHN renal
CAKI-1 renal = tested on: CAKI-1 renal
CCRF-CEM leukemia = tested on: CCRF-CEM leukemia
COLO 205 colon = tested on: COLO 205 colon
DLD-1 colon = tested on: DLD-1 colon
DMS 114 small cell lung = tested on: DMS 114 small cell lung
DMS 273 small cell lung = tested on: DMS 273 small cell lung
HCC-2998 colon = tested on: HCC-2998 colon
HCT-116 colon = tested on: HCT-116 colon
HCT-15 colon = tested on: HCT-15 colon
HL-60(TB) leukemia = tested on: HL-60(TB) leukemia
HOP-18 NSCLC = tested on: HOP-18 NSCLC
HOP-62 NSCLC = tested on: HOP-62 NSCLC
HOP-92 NSCLC = tested on: HOP-92 NSCLC
HT29 colon = tested on: HT29 colon
IGROV1 ovarian = tested on: IGROV1 ovarian
K-562 leukemia = tested on: K-562 leukemia
KM12 colon = tested on: KM12 colon
KM20L2 colon = tested on: KM20L2 colon
LOX IMVI melanoma = tested on: LOX IMVI melanoma
LXFL 529 NSCLC = tested on: LXFL 529 NSCLC
M14 melanoma = tested on: M14 melanoma
M19-MEL melanoma = tested on: M19-MEL melanoma
MALME-3M melanoma = tested on: MALME-3M melanoma
MOLT-4 leukemia = tested on: MOLT-4 leukemia
NCI-H23 lung = tested on: NCI-H23 lung
NCI-H460 lung = tested on: NCI-H460 lung
NCI-H522 lung = tested on: NCI-H522 lung
OVCAR-3 ovarian = tested on: OVCAR-3 ovarian
OVCAR-4 ovarian = tested on: OVCAR-4 ovarian
OVCAR-5 ovarian = tested on: OVCAR-5 ovarian
OVCAR-8 ovarian = tested on: OVCAR-8 ovarian
RPMI-8226 leukemia = tested on: RPMI-8226 leukemia
SF-268 CNS = tested on: SF-268 CNS
SF-295 CNS = tested on: SF-295 CNS
SF-539 CNS = tested on: SF-539 CNS
SK-MEL-2 melanoma = tested on: SK-MEL-2 melanoma
SK-MEL-28 melanoma = tested on: SK-MEL-28 melanoma
SK-MEL-5 melanoma = tested on: SK-MEL-5 melanoma
SK-OV-3 ovarian = tested on: SK-OV-3 ovarian
SN12C renal = tested on: SN12C renal
SNB-19 CNS = tested on: SNB-19 CNS
SNB-75 CNS = tested on: SNB-75 CNS
SR leukemia = tested on: SR leukemia
SW-620 colon = tested on: SW-620 colon
TK-10 renal = tested on: TK-10 renal
U251 CNS = tested on: U251 CNS
UACC-62 melanoma = tested on: UACC-62 melanoma
UO-31 renal = tested on: UO-31 renal
EKVX NSCLC = tested on: EKVX NSCLC
NCI-H226 lung = tested on: NCI-H226 lung
RXF 393 renal = tested on: RXF 393 renal
UACC-257 melanoma = tested on: UACC-257 melanoma
SNB-78 CNS = tested on: SNB-78 CNS

Measured: TGI

NC1=NS(=O)(=O)Nc2nc(-c3ccc(Cl)cc3)[nH]c21
> 100 µM: 786-0 renal | A498 renal | A549 NSCLC | ACHN renal | CAKI-1 renal | CCRF-CEM leukemia | COLO 205 colon | DLD-1 colon | DMS 114 small cell lung | DMS 273 small cell lung | HCC-2998 colon | HCT-116 colon | HCT-15 colon | HL-60(TB) leukemia | HOP-18 NSCLC | HOP-62 NSCLC | HOP-92 NSCLC | HT29 colon | IGROV1 ovarian | K-562 leukemia | KM12 colon | KM20L2 colon | LOX IMVI melanoma | LXFL 529 NSCLC | M14 melanoma | M19-MEL melanoma | MALME-3M melanoma | MOLT-4 leukemia | NCI-H23 lung | NCI-H460 lung | NCI-H522 lung | OVCAR-3 ovarian | OVCAR-4 ovarian | OVCAR-5 ovarian | OVCAR-8 ovarian | RPMI-8226 leukemia | SF-268 CNS | SF-295 CNS | SF-539 CNS | SK-MEL-2 melanoma | SK-MEL-28 melanoma | SK-MEL-5 melanoma | SK-OV-3 ovarian | SN12C renal | SNB-19 CNS | SNB-75 CNS | SR leukemia | SW-620 colon | TK-10 renal | U251 CNS | UACC-62 melanoma | UO-31 renal

CCOC(=O)N1Cc2ccoc2C1
> 100 µM: 786-0 renal | A549 NSCLC | ACHN renal | CCRF-CEM leukemia | COLO 205 colon | DLD-1 colon | DMS 114 small cell lung | DMS 273 small cell lung | EKVX NSCLC | HCC-2998 colon | HCT-116 colon | HCT-15 colon | HL-60(TB) leukemia | HOP-18 NSCLC | HOP-62 NSCLC | HOP-92 NSCLC | HT29 colon | IGROV1 ovarian | K-562 leukemia | KM12 colon | KM20L2 colon | LOX IMVI melanoma | LXFL 529 NSCLC | M14 melanoma | M19-MEL melanoma | MALME-3M melanoma | MOLT-4 leukemia | NCI-H226 lung | NCI-H23 lung | NCI-H460 lung | NCI-H522 lung | OVCAR-3 ovarian | OVCAR-4 ovarian | OVCAR-5 ovarian | OVCAR-8 ovarian | RPMI-8226 leukemia | RXF 393 renal | SF-268 CNS | SF-295 CNS | SF-539 CNS | SK-MEL-2 melanoma | SK-MEL-28 melanoma | SK-MEL-5 melanoma | SK-OV-3 ovarian | SN12C renal | SNB-19 CNS | SNB-75 CNS | SR leukemia | SW-620 colon | TK-10 renal | U251 CNS | UACC-257 melanoma | UACC-62 melanoma | UO-31 renal

O=C(OCCOC(=O)c1ccc2c(c1)C1(SCCS1)c1ccccc1-2)c1ccc2c(c1)C1(SCCS1)c1ccccc1-2
> 100 µM: A498 renal | A549 NSCLC | ACHN renal | CAKI-1 renal | CCRF-CEM leukemia | COLO 205 colon | DLD-1 colon | DMS 114 small cell lung | EKVX NSCLC | HCC-2998 colon | HCT-116 colon | HCT-15 colon | HL-60(TB) leukemia | HOP-18 NSCLC | HOP-62 NSCLC | HT29 colon | IGROV1 ovarian | K-562 leukemia | KM12 colon | KM20L2 colon | LOX IMVI melanoma | LXFL 529 NSCLC | M14 melanoma | M19-MEL melanoma | MALME-3M melanoma | MOLT-4 leukemia | NCI-H226 lung | NCI-H23 lung | NCI-H460 lung | NCI-H522 lung | OVCAR-3 ovarian | OVCAR-4 ovarian | OVCAR-5 ovarian | OVCAR-8 ovarian | RPMI-8226 leukemia | SF-268 CNS | SF-295 CNS | SF-539 CNS | SK-MEL-2 melanoma | SK-MEL-28 melanoma | SK-MEL-5 melanoma | SK-OV-3 ovarian | SN12C renal | SNB-19 CNS | SNB-75 CNS | SNB-78 CNS | SR leukemia | SW-620 colon | U251 CNS | UACC-257 melanoma | UACC-62 melanoma | UO-31 renal
